Measurements reported in patent US7611691B2, “Compounds for treatment of copper overload” (The Curators of the University of Missouri, priority 2002, dated 2009).

What was measured:
[1] = Reduction of copper levels in swine after oral Cu loading; assay type: in vivo; conditions: 15 mg/kg twice daily for three days
Method: Eight weanling pigs weighing 10-12 kg were randomly assigned to one of three groups, receiving no thpalanine (N=2), thpalanine via gavage (N=3) or thpalanine intravenously (N=3). All eight pigs underwent 21 consecutive days of oral Cu loading with 10 mg of Cu from copper sulfate per kg of body weight twice daily. Loading was determined by protocol in Mineral Tolerance of Domestic Animals. Pigs also received 10 mg/kg body weight of Cu in their diet. After 21 days dosing with copper sulfate was discontinued. Thpalanine was given to the two drug-treated groups beginning two days following the end of Cu loading. Each of the thpalanine treatment groups (oral and intravenous) received 15 mg thpalanine per kg body weight twice daily for three consecutive days. Four 24 hour urine collections were done to determine urinary Cu excretion beginning 24 hours prior to thpalanine treatment.
Following day 3 of treatment, the pigs were euthanized and a sample of liver/kidney were collected and stored at −10° F. until copper analyses. Statistical analysis was performed using ANOVA. Multiple pairwise comparisons were made using the Tukey test and statistical significance was set at P<0.05.

[2] = Oxidation of THPAL by 35% aqueous H2O2; assay type: physicochemical
Method: Hydrogen peroxide (0.2 ml, 35%, […]) was added dropwise to a solution of THPAL (0.5 g, 0.014 mmol) in water at room temperature. The reaction mixture was stirred at room temperature for one hour. The solvent was then removed under reduced pressure. The crude product was washed with methanol (5×4 ml), and then characterized as pure O═P(CH2NHCH(CH3)—COOH)3 by NMR spectroscopy. ^31P{^1H} NMR (D2O): 37.07 (s); ^1H NMR (D2O): 1.60 (d, CH3, 9H), 3.96-3.89 (m. CH2 and CH, 9H); ^13C NMR (D2O): 42.9 (d, P—CH2, JC-P=70.05 Hz), 59.6 (d, NH—CH, ^2JC-P=8.25 Hz), 15.59 (s, CH3), 175.15 (s, COOH).

[3] = Stability of THPAL in bovine serum albumin (BSA) solution by 31P NMR; assay type: physicochemical
Method: 50 mg of BSA (3.3%) was dissolved in 1.5 ml of water. 30 mg of THPAL (0.06 M) was added to this to obtain a clear solution. The measurements of stable (or unoxidized) forms of THPAL in BSA were performed using ^31P NMR spectroscopy. The ^31P NMR resonance of THPAL is very sensitive to alterations on the back bone structure. The temperature of the mixture of THPAL and BSA in water was maintained at 9-12° C.
There was no detectable change in the ^31P NMR resonance until 12-15 hours after mixing the THPAL and BSA. After 24 hours, about 20% THPAL was transferred to uncharacterized compound.

[4] = Attempted oxidation of THPAL with molecular oxygen; assay type: physicochemical; conditions: aerated water, refluxed for several hours under air
Method: THPAL (0.5 g, […]) was dissolved in aerated water (25 ml).

[5] = Hydroxyl radical absorbance capacity (HORAC); conditions: Gallic Acid calibration standard
From the text: (§1) The NORAC value of 18.8 μmolTE/g found for TBPAL (Table 1) is among the highest ever reported for antioxidant drugs.
^+Gallic Acid was used as the calibration standard and the HORAC result is expressed as mg Gallic Acid equivalent (GAE) per gram.

[6] = Nitricoxide radical absorbance capacity (NORAC)
From the text: as §1
^Trolox was used as the calibration standard and the NORAC result is expressed as μmole Trolox equivalent (TE) per gram.

[7] = Oxygen radical absorbance capacity (ORAC hydro FL); conditions: Fluorescein probe; Trolox calibration standard
From the text: as §1
Trolox, a water-soluble Vitamin E analog, was used as the calibration standard and the ORAC result is expressed as micromole Trolox equivalent (TE) per gram.

[8] = Oxidation of THPAL using gaseous hydrogen peroxide; assay type: physicochemical; conditions: aqueous solution exposed to hydrogen peroxide vapors; after two days

oxidation of THPAL to the corresponding oxide by oxygen radicals generated by peroxide [2]: complete oxidation
time with no detectable change in the 31P NMR resonance after mixing THPAL and BSA ([3]; 3.3% BSA in water, 0.06 M THPAL, 9-12° C.): 12 to 15 h
THPAL transferred to uncharacterized compound ([3]; BSA solution, after 24 hours, 9-12° C.): about 20%
oxidation state of THPAL in BSA solution (31P NMR) ([3]; after 72 hours): remained unoxidized
oxidative stability of THPAL in BSA solution (31P NMR) ([3]; after five days): no oxidation
stability in BSA solutions ([3]; overall conclusion): stable
conversion to O═P(CH2NHCH(CH3)COOH)3 [8]: Complete conversion
Structure (SMILES): CC(NCP(CNC(C)C(=O)O)CNC(C)C(=O)O)C(=O)O (centres unmarked) [THPAL, 2-[({Bis-[(1-carboxy-ethylamino)-methyl]-phosphanyl}-methyl)-amino]-propionic acid]
copper levels in swine kidneys ([1]; Cu-loaded weanling pigs, intravenous): significantly reduced
adverse effects (clinical observations, rate of gain, gross necropsy) ([1]; pigs, oral or intravenous): no adverse effects
oxidation or decomposition by 31P NMR [4]: did not show any oxidation or detectable decomposition
HORAC [5]: Not Detectable
NORAC value [6]: 18.8 μmolTE/g
NORAC ([6]; Trolox calibration standard): 18.81 μmoleTE/g
ORAChydroFL [7]: 31 μmoleTE/g
